In patent publication US7628991B2, “Use of Lactobacillus farciminis for the prevention or treatment of digestive pathologies” (Institute National de la Recherche Agronomique (INRA), priority 2002, dated 2009):

Assays:
[1] = test system: colonic inflammation induced by TNBS/ethanol; assay: Myeloperoxidase (MPO) activity of the colon wall, TNBS/ethanol-induced colitis (Example 1); assay type: in vivo, WISTAR rats; settings: rats without TNBS/ethanol (0.9% NaCl instillation); intracolonic infusion for 4 days
Excerpt: (§1) This colitis is characterized by an increase in myeloperoxidase (MPO) activity, a marker of the degree of infiltration of polynuclear neutrophils in the colonic mucosa, and by the increase in the macroscopic lesion score (MLS) taking into account the seriousness and the extent of the macroscopic lesions appearing, the presence and seriousness of adherences and the presence or nonpresence of diarrhea in the colon.
The effects of a treatment with a nitric oxide donor, sodium nitroprusside (SNP), or with L. farciminis on a TNBS-induced colitis in rats were compared. Moreover, the effective role of exogenous nitric oxide in these effects was evaluated using an NO scavenger, hemoglobin (Hb). […]
The myeloperoxidase (MPO) activity is determined on colon samples isolated according to the protocol described by BRADLEY et al. (J. Invest. Dermatol., 78, 206-209, 1982). […]
The MPO activity is determined by spectrophotometry. […] The changes in absorbance. (450 nm, 25° C.) were determined by kinetic spectrophotometry of 2 minutes, according to the balanced equation for the enzymatic reaction catalyzed by MPO: H2O2+Cl^−=H2O+HOCl (orange color), and expressed as MPO units.
One MPO activity unit is defined as the quantity of MPO degrading 1 μmol of hydrogen peroxide per minute per milliliter at 25° C. […]

[2] = test system: colonic inflammation induced by TNBS/ethanol; assay: Macroscopic lesion score (MLS) of the colon, TNBS/ethanol-induced colitis (Example 1); assay type: in vivo, WISTAR rats; settings: rats instilled with TNBS/ethanol, 4 days after instillation; daily intracolonic infusion; SNP 1 mg/kg/day, Hb 200 mg/kg/day
Excerpt: as §1
For the study of the effects of SNP, 7 groups of WISTAR rats of 200-250 grams were provided, under anesthetic, with an intracolonic catheter (+2 cm from the caeco-colonic junction) exteriorized at the level of the dorsoscapular region. At D+5, the rats receive an intracolonic instillation of 80 mg/kg/day of TNBS/ethanol (groups 4-7) or of a 0.9% NaCl solution (groups 1-3). 4 hours after the instillation, the rats are infused at a flow rate of 250 μl/hour with 1 mg/kg/day of SNP (groups 2 and 5), or 200 mg/kg/day of Hb (groups 3 and 7), or an SNP+Hb mixture (group 6), or a 0.9% NaCl solution (groups 1 and 4), for 4 days. […]
The macroscopic lesion score (MLS) is determined on isolated colonic samples as described by WALLACE et al., (Gastroenterology, 102, 18-27, 1992) according to the assessment grid below: […]

hemoglobin [Hb]
MPO activity of the colon wall [1]: 426±117 MPO U/g of proteins
Macroscopic lesion score (MLS) [2]: 5.8±1.3
